Where two headings read alike, the source gives them in different places.
Tests used:
[1] = tested on: human liver organoid (HLO); experiment: Mitochondrial membrane potential; details: treatment for 24h, multiple doses
[2] = Organoid viability after treatment with training compounds; details: human, human liver organoids (HLO)
lipotoxic HLO = experiment: Viability in lipotoxic; format: cell-based
BSEP = experiment: CLF bile acid transport in HLO; format: cell-based, human; details: normal HLO, viable dosing (100 μM, 200 μM)
[3] = tested on: human liver organoid (HLO); details: 72 h
[4] = tested on: human liver organoid (HLO)
[5] = tested on: CYP2C9*2 carrier and non-carrier HLO; format: cell-based, human
CYP1A2 = CYP1A2 induction in HLO

SMILES: CCN(CC)C(=O)/C(C#N)=C/c1cc(O)c(O)c([N+](=O)[O-])c1 [Entacapone]
- increase in MMP [1]: increases in MMP were not clearly observed
- viability at 24 h, 130 µM [2]: 85%
- viability at 72 h, 130 µM [2]: 64%

SMILES: CC(=O)N[C@@H](CS)C(=O)O [NAC, N-acetylcysteine]
- rescue of cell viability (lipotoxic HLO; lipotoxic HLO treated with Troglitazone): cell viability was significantly improved

SMILES: CCc1ccc(CCOc2ccc(CC3SC(=O)NC3=O)cc2)nc1 (stereo not drawn) [Pioglitazone]
- effect on viability (lipotoxic HLO; 200 μM, 24h, HLO with/without lipotoxic condition): did not affect viability

SMILES: Cc1cc2c(cc1CC(=O)c1sccc1S(=O)(=O)Nc1onc(C)c1Cl)OCO2 [sitaxentan]
- CLF transport (BSEP): inhibited CLF transport

SMILES: COc1ccc2c(c1)c(CC(=O)O)c(C)n2C(=O)c1ccc(Cl)cc1 [Indomethacin]
- concentration at which induced toxicity was detected in cytotoxicity assay [3]: 10 µM

SMILES: Cc1c(C)c2c(c(C)c1O)CCC(C)(COc1ccc(CC3SC(=O)NC3=O)cc1)O2 (stereo not drawn) [Troglitazone]
- cell viability at 72 hours relative to TOL, DICLO and BOS [4]: significantly lowered cell viability

SMILES: CC(c1cc2ccccc2s1)N(O)C(N)=O (stereo not drawn) [Zileuton]
- concentration at which induced toxicity was detected in cytotoxicity assay [3]: 100 µM

SMILES: COc1ccccc1Oc1c(NS(=O)(=O)c2ccc(C(C)(C)C)cc2)nc(-c2ncccn2)nc1OCCO [Bosentan]
- Positive rate of impaired CLF excretion ([5]; CC genotype (CYP2C9 enzyme activity normal) HLO): 17.1 % of positive
- Positive rate of impaired CLF excretion ([5]; CT genotype (CYP2C9*2, activity intermediate) HLO): 70.8 % of positive

SMILES: COc1ccc2[nH]c([S+]([O-])Cc3ncc(C)c(OC)c3C)nc2c1 (stereo not drawn) [Omeprazol, Omeprazole]
- CYP1A2 induction response (CYP1A2): major CYP induction responses in HLO

From article PMC7878295 (Gastroenterology, 2020)
